Reference: PMC3125149, “SCYX-7158, an Orally-Active Benzoxaborole for the Treatment of Stage 2 Human African Trypanosomiasis” (PLoS Neglected Tropical Diseases, 2011)
pIC50: −log10 of the molar value.

Key:
[1] = Pharmacokinetics in uninfected mice; type: in vivo, mouse
T. b. brucei TREU 667 = assay: Efficacy in mouse model for chronic (CNS, stage 2) HAT; type: in vivo
Protocol: For evaluation against late-stage CNS infections, a chronic disease inducing strain (TREU 667) of T. b. brucei was used.[19] Mice were divided into groups of ten and each animal was infected i.p. with 1×10^4 parasites (200 μL). […] Louis, MO) administered by i.p. injection on day 4 after infection. […] Animals were checked for parasitemia once per week and were immediately removed from the cages and euthanized upon recrudescence. Animals were considered to be cured of a CNS infection if they were […] for at least 180 days after the end of the treatment period.

[2] = In vivo pharmacokinetic characterization (abstract summary); design: species or system rodents
Protocol: The blood distribution, CNS disposition and pharmacokinetics of SCYX-7158 were evaluated in infected or non-infected rodents following intravenous or oral administration of compounds. Pharmacokinetics and bioavailability of SCYX-7158 were also evaluated in non-infected beagle dogs and cynomolgus monkeys. In-life phases of non-infected rodent studies were performed at Vivisource (Waltham, MA); studies in non-naïve cynomolgus monkeys were performed by SNBL USA (Everett, WA).
Male CD-1 mice (∼25 g), male Sprague-Dawley rats (∼225 g), or male cynomolgus monkeys (∼3–5 kg) were administered test article by either bolus intravenous injection (IV) or oral gavage. Animals in the IV groups received a single 2 mg/kg IV dose. Animals received oral doses of test articles as either single or twice daily doses ranging from 8 mg/kg to 50 mg/kg. All doses were administered as clear colorless solutions in either 50% (v/v) PEG 400: 20% (v/v) ethanol: 30% (v/v) carboxymethylcellulose (0.5% w/v in sterile water for injection) or 2% (v/v) ethanol: 5% (w/v) dextrose in sterile water for injection. Doses were administered in a volume of 4 mL/kg, 2 mL/kg or 1 mL/kg for mice, rats and cynomolgus monkeys, respectively. For pharmacokinetic analysis, blood samples were collected from mice via cardiac puncture under terminal anaesthesia. Serial blood samples were collected from rats via a vascular access port located in the lateral saphenous vein. Mice and rats were euthanized in a CO2 chamber before collection of terminal blood samples or brain tissue. Blood samples were collected into polypropylene tubes containing K2EDTA anticoagulant and stored on ice until centrifuged for the preparation of plasma. Plasma was stored at −70°C. Whole brains were collected following decapitation, blotted dry, placed into polypropylene containers and then immediately frozen at approximately −70°C. CSF was collected from rats via cisterna magna puncture, placed in sterile polypropylene tubes, and stored at approximately −70°C.

T. b. brucei 427 = assay: Reversibility of trypanocidal effects (wash-out); type: cell-based; settings: at about 5 times the IC50
Protocol: To establish the time and concentration required to cause persistent or irreversible effects by oxaboroles, T. b. brucei parasites were assessed for their ability to recover from transient exposure to test compounds. Trypanosomes were seeded in clear 96-well V-bottom plates at a density of 1×10^5 parasites per well and incubated with serially diluted test compound (from 10 to 0.02 µg/mL). One plate was prepared for each time point. At the designated time, a plate was removed from the incubator and spun at 2,600 g for 5 min to sediment the parasites. The supernatant was aspirated and 100 µL of warmed HMI-9 media was added to each well. The wash was repeated twice more. The parasites were resuspended in 100 µL of warmed media and 20 µL of this suspension was added to 80 µL of HMI-9 media in triplicate plates. Following a 72 h incubation, resazurin was added and trypanocidal activity determined as described for the in vitro sensitivity assay.

T. b. brucei = assay: Effect of serum on trypanocidal activity; type: cell-based; settings: 25% mouse serum or 50% bovine serum
Protocol: Compounds to be tested were serially diluted in DMSO and added to 96-well plates to give final concentrations ranging from 5 to 0.01 µg/mL. T. b. brucei parasites in the log phase of growth were diluted in HMI-9 media and added to each well for a final concentration of 1×10^4 parasites per well. For the sensitivity assays using T. b. rhodesiense and T. b. gambiense, pararasites were cultured in MEM supplemented with Baltz components (8), diluted in the aforementioned culture media, and added to each well at a density of 1×10^3 cells/well. The final concentration of DMSO was 0.5% and the total volume was 100 µL/well. After a 72 h incubation, resazurin (Sigma-Aldrich, St. Louis, MO) was added to each well [20 µL of 25 mg/100 mL stock in phosphate buffered saline (PBS)] and incubated for an additional 4–6 h.[22] To assess cell viability, fluorescence was quantified using an EnVision Multilabel Plate Reader (Perkin Elmer, Waltham, MA) at an excitation wavelength of 530 nm and emission of 590 nm. Triplicate data points were averaged to generate sigmoidal dose-response curves and determine IC50 values using XLfit curve fitting software from IDBS (Guilford, UK). The IC50 is defined as the amount of compound required to decrease parasite or cell viability by 50% compared to those grown in the absence of the test compound. […]

[3] = target: T1, hERG channel expressed in HEK-293 cells (Homo sapiens, UniProt Q12809); assay: hERG whole-cell patch clamp; type: cell-based
T1 construct: expressed in transfected cells; host or cells: HEK-293
T1 sequence (Q12809 whole entry): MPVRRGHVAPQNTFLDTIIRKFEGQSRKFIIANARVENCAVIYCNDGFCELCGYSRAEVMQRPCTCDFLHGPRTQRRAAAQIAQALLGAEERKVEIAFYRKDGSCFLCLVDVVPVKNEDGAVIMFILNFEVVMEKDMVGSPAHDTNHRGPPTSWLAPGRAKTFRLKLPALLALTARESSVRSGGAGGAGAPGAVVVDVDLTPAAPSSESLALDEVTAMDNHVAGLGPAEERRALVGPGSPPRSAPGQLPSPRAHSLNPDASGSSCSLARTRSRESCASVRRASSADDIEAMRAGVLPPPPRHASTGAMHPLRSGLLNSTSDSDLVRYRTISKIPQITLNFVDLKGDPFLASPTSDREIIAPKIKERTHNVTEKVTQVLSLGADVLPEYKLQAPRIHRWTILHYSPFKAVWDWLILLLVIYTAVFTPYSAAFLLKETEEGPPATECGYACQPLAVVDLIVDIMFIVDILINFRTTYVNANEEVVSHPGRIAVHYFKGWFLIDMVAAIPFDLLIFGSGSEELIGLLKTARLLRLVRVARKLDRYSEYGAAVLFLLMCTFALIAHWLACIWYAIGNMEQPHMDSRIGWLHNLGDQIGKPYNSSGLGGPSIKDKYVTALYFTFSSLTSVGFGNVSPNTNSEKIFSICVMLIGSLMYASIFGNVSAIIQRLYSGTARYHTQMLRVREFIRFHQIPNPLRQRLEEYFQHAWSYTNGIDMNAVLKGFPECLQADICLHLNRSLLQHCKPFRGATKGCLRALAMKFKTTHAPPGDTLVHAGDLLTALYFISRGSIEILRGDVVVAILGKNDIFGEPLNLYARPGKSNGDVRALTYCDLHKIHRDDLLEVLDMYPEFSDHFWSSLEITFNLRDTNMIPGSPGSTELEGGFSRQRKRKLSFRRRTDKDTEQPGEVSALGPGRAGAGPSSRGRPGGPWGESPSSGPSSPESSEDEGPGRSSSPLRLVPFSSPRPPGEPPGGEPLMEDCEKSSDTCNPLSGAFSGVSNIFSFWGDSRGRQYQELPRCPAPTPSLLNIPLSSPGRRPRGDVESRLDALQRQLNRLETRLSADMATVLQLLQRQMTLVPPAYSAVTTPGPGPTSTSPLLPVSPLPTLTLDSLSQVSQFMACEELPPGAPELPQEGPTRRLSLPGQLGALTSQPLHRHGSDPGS

Structure (SMILES): CC1(C)OB(O)c2cc(NC(=O)c3ccc(F)cc3C(F)(F)F)ccc21 [SCYX-7158]
- brain AUC0–24 h ([1]; 4.3 mg/kg intravenous, brain): 5570 ng·h/mL
- clearance ([1]; male, CD-1, mouse, plasma, 4.3 mg/kg intravenous, read-out: systemic clearance (CL) (converted)): 1.48 mL/min/kg
- Vd ([1]; male, CD-1, mouse, plasma, 4.3 mg/kg intravenous, read-out: volume of distribution (Vdss)): 1.69 L/kg
- Cmax ([1]; male, CD-1, mouse, oral dose of 56 mg/kg SCYX-7158, plasma): 18000 ng/mL
- cure rate (T. b. brucei TREU 667; 12.5 mg/kg once daily oral over 7 days starting day 21 after infection): 80%
- cure rate (T. b. brucei TREU 667; 25 mg/kg once daily oral, 7 doses, starting day 21 after infection): 100%
- lowest effective oral dose in murine stage 2 study (T. b. brucei TREU 667; QD×7 days, oral): 12.5 mg/kg
- half-life ([2]; male, rodents and non-human primates, plasma, read-out: elimination half-life (converted)): 24 h
- brain AUC0–24 hr ([2]; rodents, 25 mg/kg oral dose): > 100000 ng·h/mL
- brain Cmax ([2]; rodents, 25 mg/kg oral dose): > 10000 ng/mL
- exposure time sufficient to produce irreversible effects on trypanosome survival (T. b. brucei 427): 10 to 12 h
- attenuation of in vitro IC50 (T. b. brucei): 3–4 fold
- mean fractional block ([3]; 30 µM): 0.108±0.037
- mean fractional block ([3]; 100 µM): 0.198±0.018
- pIC50 ([3]; indicated by patch clamp fractional block): < 4.00
